These results are taken from US12091425B2 (AMGEN INC., priority 2016, dated 2024).

Like-named read-outs stand apart in the source and are kept apart here.

What is called IC50 is the concentration that inhibits the measured activity by half.

In data set [1] the target is T1, Mcl-1/Bim interaction, recombinant human Mcl-1 (171-327) (Homo sapiens, UniProt Q07820).
T1 construct: made in house
Description: Cell free Mcl-1: Bim Affinity Assay (Mcl-1 HTRF). The format is binding. The essentials: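 Biotin-Bim(51-76) peptide, TR-FRET readout, overnight incubation; IC50 from duplicate competition curves, 4-parameter fit.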
Background: TR-FRET usually uses a lanthanide donor and a delayed reading to cut background.

The subject of data set [2] is OPM-2 human multiple myeloma cell line. Nature of the data set: Cell Viability Assay (OPM-2 10 FBS). In kind it is cell-based. The note with it: Homo sapiens, OPM-2, 16 h, OPM-2 cells, 16 h, CellTiter-Glo. The essentials:
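ATP-based luminescence (CellTiter-Glo) measured after a 16 h compound treatment of OPM-2 cells seeded at 3000 cells/well in 10% FBS medium. IC50 values derived by 4-parameter logistic fitting of serial dilutions.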
In general terms: Cellular ATP, detected with luciferase, serves as a proxy for viable cell number.

Experiment in data set [3]: not given
The source holds these as a separate data set.

The mark [4] stands for this setting: TR-FRET, 0.1 nM Mcl-1 (171-327), 0.05 nM biotin-Bim (51-76).
The mark [5] stands for this setting: cell free Mcl-1:Bim TR-FRET, recombinant human Mcl-1 (171-327).

T1 sequence (Q07820 171-327): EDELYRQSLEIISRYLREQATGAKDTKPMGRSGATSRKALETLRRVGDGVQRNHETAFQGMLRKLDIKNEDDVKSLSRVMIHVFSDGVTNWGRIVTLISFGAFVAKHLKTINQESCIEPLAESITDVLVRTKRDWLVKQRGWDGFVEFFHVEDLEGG

For the compound `C[C@@H]1CC=C[C@H](O)[C@]2(C)CC[C@H]2CN2C[C@@]3(CCCc4cc(Cl)ccc43)COc3ccc(cc32)C(=O)NS1(=O)=O`, the ring closure, yield after HPLC (from C[C@H](C/C=C/[C@H](O)[C@]1(C)CC[C@H]1CN1C[C@@]2(CCCc3cc(Cl)ccc32)COc2ccc(C(=O)O)cc21)S(N)(=O)=O, amide bond, 15-membered ring, EDC/DMAP, DCM, 2.0 mM, 16.0 h) was 7.1%.
Compound `N#CC[C@@H]1CC/C=C/[C@H](O)[C@@H]2CC[C@H]2CN2C[C@@]3(CCCc4cc(Cl)ccc43)COc3ccc(cc32)C(=O)NS1(=O)=O` showed a ring closure, yield after HPLC (from C=CC/C=C/[C@H](O)[C@@H]1CC[C@H]1CN1C[C@@]2(CCCc3cc(Cl)ccc32)COc2ccc(C(=O)NS(=O)(=O)[C@@H](CC#N)CCC=C)cc21, rcm bond, 16-membered ring, Hoveyda-Grubbs II (20 mol%), reduced pressure, AcOH, 2.89 mM, […]) of 3.43%.
Consider `C=CCCC(C#N)S(=O)(=O)NC(=O)c1ccc2c(c1)N(C[C@@H]1CC[C@H]1[C@@H](O)/C=C/CCC)C[C@@]1(CCCc3cc(Cl)ccc31)CO2` (single isomer, unassigned), for which the ring closure, yield after HPLC (the molecule shown is the open-chain precursor, rcm bond, 16-membered ring, Hoveyda-Grubbs II (20 mol%), reduced pressure, AcOH, 2.9 mM, […]) was found to be 2.58%.
Regarding `O=C1NS(=O)(=O)[C@H]2CCC[C@@H](C=C[C@H](O)[C@@H]3CC[C@H]3CN3C[C@@]4(CCCc5cc(Cl)ccc54)COc4ccc1cc43)C2` (single isomer, unassigned), for the setting “from NS(=O)(=O)[C@H]1CCC[C@@H](/C=C/[C@H](O)[C@@H]2CC[C@H]2CN2C[C@@]3(CCCc4cc(Cl)ccc43)COc3ccc(C(=O)O)cc32)C1, amide bond, 16-membered ring, EDC/DMAP, DCM, 2.0 mM, 16.0 h”, the ring closure, yield after HPLC turned out to be 4.7%.
For the setting “from C=CCCN(CC)S(=O)(=O)NC(=O)c1ccc2c(c1)N(C[C@@H]1CC[C@H]1[C@@H](O)/C=C/CCC)C[C@@]1(CCCc3cc(Cl)ccc31)CO2, rcm bond, 16-membered ring, Hoveyda-Grubbs II, AcOH, 2.9 mM”, `CCN1CC/C=C/[C@H](O)[C@@H]2CC[C@H]2CN2C[C@@]3(CCCc4cc(Cl)ccc43)COc3ccc(cc32)C(=O)NS1(=O)=O` (single isomer, unassigned) [Example 29] yielded a ring closure, yield after HPLC of 22.2%. The results for the IC50 in data set [1] (setting [4]) and in data set [2] were 0.66 nM and 1280 nM, respectively.
Compound `C[C@H]1C/C=C\[C@H](O)[C@@H]2CC[C@H]2CN2C[C@@]3(CCCc4cc(Cl)ccc43)COc3ccc(cc32)C(=O)NS(=O)(=O)N1` (single isomer, unassigned) [Example 62] yielded a ring closure, yield after HPLC (from C=CC[C@H](C)NS(=O)(=O)NC(=O)c1ccc2c(c1)N(C[C@@H]1CC[C@H]1[C@@H](O)C=C)C[C@@]1(CCCc3cc(Cl)ccc31)CO2, rcm bond, 16-membered ring, Hoveyda-Grubbs II, AcOH) of 2.1%. The values for the concentration for half-maximal inhibition (IC50) in data set [1] (setting [4]) and in data set [2] were 0.266 nM and 362 nM, respectively.
For the compound `C[C@H]1[C@@H]2/C=C/[C@H](O)[C@@H]3CC[C@H]3CN3C[C@@]4(CCCc5cc(Cl)ccc54)COc4ccc(cc43)C(=O)NS(=O)(=O)[C@@H]1CCC2` [Example 112, (1S,3′R,6′R,7′S,8′E,10′S,14′R,28′S)-6-chloro-7′-hydroxy-28′-methyl-3,4-dihydro-2H,17′H-spiro[naphthalene-1,24′-[22]oxa[15]thia[1,16]diazapentacyclo[16.7.2.1^10,14.0^3,6.0^21,26]octacosa[8,18,20,26]tetraen]-17′-one 15′,15′-dioxide], the ring closure, isolated yield in data set [3] (from C[C@H]1[C@H](/C=C/[C@H](O)[C@@H]2CC[C@H]2CN2C[C@@]3(CCCc4cc(Cl)ccc43)COc3ccc(C(=O)O)cc32)CCC[C@H]1S(N)(=O)=O, amide bond, 16-membered ring, EDC/DMAP, DCM, 2.0 mM, 16.0 h) was 21%. Also, the concentration for half-maximal inhibition (IC50) in data set [1] (setting [4]) was found to be 0.63 nM; in data set [2], 172 nM.
Take `O=C1NS(=O)(=O)CCCC/C=C/[C@@H](O)[C@@H]2CC[C@H]2CN2C[C@@]3(CCCc4cc(Cl)ccc43)COc3ccc1cc32` [Example 227, (1S,3′R,6′R,7′R,8′E)-6-chloro-7′-hydroxy-3,4-dihydro-2H,16′H-spiro[naphthalene-1,23′-[21]oxa[14]thia[1,15]diazatetracyclo[15.7.2.0^3,6.0^20,25]hexacosa[8,17,19,25]tetraen]-16′-one 14′,14′-dioxide]: the ring closure, isolated yield in data set [3] (from C=CCCCCS(=O)(=O)NC(=O)c1ccc2c(c1)N(C[C@@H]1CC[C@H]1[C@H](O)/C=C/CCC)C[C@@]1(CCCc3cc(Cl)ccc31)CO2, rcm bond, 17-membered ring, Hoveyda-Grubbs II, AcOH, 5.2 mM) is 59%. Besides, the half-maximal inhibitory concentration (IC50) in data set [1] (setting [4]) turned out to be 32.8 nM; in data set [2], 21400 nM.
`C[C@@H]1C/C=C/[C@H](O)[C@@H]2CC[C@H]2CN2C[C@@]3(CCCc4cc(Cl)ccc43)COc3ccc(cc32)C(=O)NS1(=O)=O` [Example 758, (1S,3′R,6′R,7′S,8′E,11′R)-6-chloro-7′-hydroxy-11′-methyl-3,4-dihydro-2H,14′H-spiro[naphthalene-1,21′-[19]oxa[12]thia[1,13]diazatetracyclo[13.7.2.0^3,6.0^18,23]tetracosa[8,15,17,23]tetraen]-14′-one 12′,12′-dioxide]: in data set [3] (from C=CC[C@@H](C)S(=O)(=O)NC(=O)c1ccc2c(c1)N(C[C@@H]1CC[C@H]1[C@@H](O)C=C)C[C@@]1(CCCc3cc(Cl)ccc31)CO2, rcm bond, 15-membered ring, Hoveyda-Grubbs II, DCM, 2.65 mM, 7.0 h), the ring closure, isolated yield came to 23.8%. Moreover, the 50% inhibitory concentration (IC50) in data set [1] (setting [5]) came to 0.46 nM; in data set [2] it was 1180 nM.
`C[C@@H]1CC/C=C/[C@H](O)[C@@H]2CC[C@H]2CN2C[C@@]3(CCCc4nc(Cl)ccc43)COc3ccc(cc32)C(=O)NS1(=O)=O` [Example 791, (3R,6R,7S,8E,12R,22S)-2′-chloro-7-hydroxy-12-methyl-7′,8′-dihydro-6′H,15H-spiro[20-oxa-13-thia-1,14-diazatetracyclo [14.7.2.0^3,6.0^19,24]pentacosa-8,16,18,24-tetraene-22,5′-quinolin]-15-one 13,13-dioxide] yielded a ring closure, isolated yield in data set [3] (from C=CCC[C@@H](C)S(=O)(=O)NC(=O)c1ccc2c(c1)N(C[C@@H]1CC[C@H]1[C@@H](O)/C=C/CCC)C[C@@]1(CCCc3nc(Cl)ccc31)CO2, rcm bond, 16-membered ring, Hoveyda-Grubbs II, AcOH, 1.98 mM) of 40%. Further, the figures for the IC50 in data set [1] (setting [5]) and in data set [2] were 6.21 nM and 23300 nM, respectively.
As for `CC[C@@H]1CC/C=C/[C@H](O)[C@@H]2CC[C@H]2CN2C[C@@]3(CCCc4nc(Cl)ccc43)COc3ccc(cc32)C(=O)NS1(=O)=O` [Example 798, (3R,6R,7S,8E,12R,22S)-2′-chloro-12-ethyl-7-hydroxy-7′,8′-dihydro-6′H,15H-spiro[20-oxa-13-thia-1,14-diazatetracyclo[14.7.2.0^3,6.0^19,24]pentacosa-8,16,18,24-tetraene-22,5′-quinolin]-15-one 13,13-dioxide], the ring closure, isolated yield in data set [3] (from C=CCC[C@@H](CC)S(=O)(=O)NC(=O)c1ccc2c(c1)N(C[C@@H]1CC[C@H]1[C@@H](O)/C=C/CCC)C[C@@]1(CCCc3nc(Cl)ccc31)CO2, rcm bond, 16-membered ring, Hoveyda-Grubbs II, AcOH, 2.04 mM) amounted to 39%. In addition, the results for the IC50 in data set [1] (setting [5]) and in data set [2] were 2.42 nM and 9260 nM, respectively.
Turning to “(1S,3′R,6′R,7′S,8′E)-6-chloro-7′-hydroxy-9′-bromo-3,4-dihydro-2H,15′H-spiro[naphthalene-1,22′-[20]oxa[13]thia[1,14]diazatetracyclo[14.7.2.0^3,6.0^19,24]pentacosa[8,16,18,24]tetraen]-15′-one 13′,13′-dioxide or (1S,3′R,6′R,7′R,8′E)-6-chloro-7′-hydroxy-9′-bromo-3,4-dihydro-2H,15′H-spiro[naphthalene-1,22′-[20]oxa[13]thia[1,14]diazatetracyclo[14.7.2.0^3,6.0^19,24]pentacosa[8,16,18,24]tetraen]-15′-one 13′,13′-dioxide”, the ring closure, yield after HPLC (amide bond, 16-membered ring, EDC/DMAP/TEA, DCM, 5.0 mM, […]) was determined as 13%.
Regarding “(1S,3′R,6′R,7′S,8′E,11′S,12′R)-6-chloro-7′-hydroxy-12′-(2-methoxyethyl)-11′-methyl-3,4-dihydro-2H,15′H-spiro[naphthalene-1,22′-[20]oxa[13]thia[1,14]diazatetracyclo[14.7.2.0^3,6.0^19,24]pentacosa [8,16,18,24]tetraen]-15′-one 13′,13′-dioxide or [...] or (1S,3′R,6′R,7′S,8′E,11′R,12′R)-6-chloro-7′-hydroxy-12′-(2-methoxyethyl)-11′-methyl-3,4-dihydro-2H,15′H-spiro[naphthalene-1,22′-[20]oxa[13]thia[1,14]diazatetracyclo[14.7.2.0^3,6.0^19,24]pentacosa[8,16,18,24]tetraen]-15′-one 13′,13′-dioxide”, the ring closure, yield after HPLC (rcm bond, 16-membered ring, Hoveyda-Grubbs II, 1,2-dichloroethane, 3.67 mM, 50.0 °C) was 8.2%.
In the case of “(1S,3′R,6′R,7′S,8′E,12′R)-12′-(2-(tert-butylsulfonyl)ethyl)-6-chloro-7′-hydroxy-3,4-dihydro-2H,15′H-spiro[naphthalene-1,22′-[20]oxa[13]thia[1,14]diazatetracyclo[14.7.2.0^3,6.0^19,24]pentacosa[8,16,18,24]tetraen]-15′-one 13′,13′-dioxide or (1S,3′R,6′R,7′S,8′E,12′S)-12′-(2-(tert-butylsulfonyl)ethyl)-6-chloro-7′-hydroxy-3,4-dihydro-2H,15′H-spiro[naphthalene-1,22′-[20]oxa[13]thia [1,14]diazatetracyclo[14.7.2.0^3,6.0^19,24]pentacosa[8,16,18,24]tetraen]-15′-one 13′,13′-dioxide”, under “rcm bond, 16-membered ring, Hoveyda-Grubbs II (20 mol%), reduced pressure, AcOH, 2.9 mM, […]”, the ring closure, yield after HPLC came out at 6.75%.
For the compound “(1S,3′R,6′R,11′S)-6-chloro-11′-methyl-3,4-dihydro-2H,7′,14′H-spiro[naphthalene-1,21′-[19]oxa[12]thia[1,13]diazatetracyclo[13.7.2.0^3,6.0^18,23]tetracosa [15,17,23]triene]-7′,14′-dione 12′,12′-dioxide”, for the setting “rcm bond, 15-membered ring”, the ring closure, yield after HPLC was determined as 4.8%.
